In one test the target is T1, HLA DRB1*0101 (Homo sapiens, UniProt P01903+P01911, A100R/D57E/F55L/F60I/F76Y/I96L/L162R/M171V/P40L/Q125E/R42F/V115G/Y59C).
T1 construct: made in house
Put plainly: MHC peptide-binding assay, purified DRB1*0101.

The subject of test [1] is splenic CD4+ T cells from DENV3 (D3S5CX) infected DRB1*0101 transgenic IFN-α/βR−/− mice. Nature of the test: IFNγ ELISPOT, CD4+ T cells of DENV3 (D3S5CX) infected DRB1*0101 transgenic IFN-α/βR−/− mice. The class given is cell-based, mouse. The note with it: day 7 after DENV3 D3S5CX, SFC/10^6 T cells.
The test system of test [2] is PBMC of healthy adult blood donors from Colombo, Sri Lanka. Nature of the test: Ex vivo IFNγ ELISPOT, HLA-matched PBMC of Sri Lankan blood donors. The class given is cell-based, human. Also on record: Total Response per epitope: unit not given here.
For test [3], the system named is PBMC from DENV seropositive HLA matched human donors. Nature of the test: IFNγ ELISPOT of human PBMC restimulated 7 days with peptide and IL2. It counts as cell-based. The settings on record: responding B*0702 matched donors (out of 5).
Protocol: To evaluate the antigenicity of the epitopes in humans, 2×10^6 PBMC/ml were stimulated in the presence of 1 μg/ml individual peptide for 7 days. Cells were cultured at 37° C., 5% CO2, and recombinant IL2 (10 U/mL, eBiosciences, San Diego, Calif.) was added 3 days after antigenic stimulation. After one week, PBMC were harvested and tested at a concentration of 1×10^5/well in an IFNγ ELISPOT assay, as described above. […] To be considered positive, IFNγ responses needed to exceed the threshold set as the mean responses of HLA non-matched and DENV seronegative donors plus 3 times the standard deviation.
The next test has as its target HLA B*4001 (Homo sapiens, UniProt P01889, A65T/A93T/A95T/D138N/D98Y/E176V/E69K/N87E/Q56L/Q94N/R180L/S121R/S35A/S48T/T167S/V36M/W171L/Y33H/Y91S). Put plainly: MHC peptide-binding assay, purified B*4001.
The next test concerns DENV2 (S221). Nature of the test: Peptide immunization and DENV2 challenge, DENV2 RNA by real-time RT-PCR. The class given is in vivo, mouse. The settings on record: immunization with the four H-2^b peptides together; day 4 after S221 infection. As to the method: Mice were euthanized by isoflurane inhalation and blood was collected via cardiac puncture. Serum was separated from whole blood by centrifugation in serum separator tubes (Starsted) Small intestines were put into PBS, flushed, filleted, chopped into small pieces, and put into RNAlater (Qiagen). Other organs were immediately placed into RNAlater and all organs were subsequently homogenized for 3 min in 1 ml tissue lysis buffer (Qiagen Buffer RLT) using a Mini-Beadbeater-8 (BioSpec Products) or QiagenTissueLyser Immediately after homogenization, all tissues were centrifuged (5 min, 4° C., 16,000×g) to pellet debris, and RNA was isolated using the RNeasy Mini Kit (Qiagen). Serum RNA was isolated using the QIAamp Viral RNA Mini Kit (Qiagen). After elution, viral RNA was stored at −80° C. Quantitative RT-PCR was performed according to a published protocol (Houng et al., J Virol Methods 86:1-11 (2000)), except a MyiQ Single-Color Real-Time PCR Detection System (Bio-Rad) with One-Step qRT-PCR Kit (Quanta BioSciences) were used. […] After transcription, DNA was digested with DNase I, and RNA was purified using the RNeasy Mini Kit and quantified by spectrophotometry. To control for RNA quality and quantity when measuring DENV in tissues, the level of 18S rRNA was measured using 18S primers described previously (Lacher, et al., Cancer Res 66:1648 (2006)) in parallel real-time RT-PCR reactions. […]
For orientation: Real-time PCR tracks product formation cycle by cycle.

This is an account of results in patent US10308689B2, “Dengue virus (DV) polypeptide sequences, T cell epitopes and methods and uses thereof” (LA JOLLA INSTITUTE FOR ALLERGY AND IMMUNOLOGY, priority 2010, dated 2019).

Ends that are not written are not given here.

Description for HLA B*4001: The non-transfected cell line was used as a negative control. […] The LG2 cell line was used as a negative control.

In general, IC50 refers to the concentration that gives 50% inhibition. Regarding `CC[C@H](C)[C@H](NC(=O)[C@H](CCSC)NC(=O)[C@H](CCSC)NC(=O)[C@H](CC(C)C)NC(=O)[C@H](CS)NC(=O)[C@H](CC(C)C)NC(=O)[C@H](CO)NC(=O)[C@@H](NC(=O)[C@@H](N)CCCCN)[C@@H](C)O)C(=O)N[C@@H](CC(C)C)C(=O)N1CCC[C@H]1C(=O)N[C@@H](C)C(=O)N[C@@H](C)C(=O)N[C@@H](CC(C)C)C(=O)N[C@@H](C)C(=O)O` [Epitope C101-115], the IC50 at HLA DRB1*0101 came to 0.012 µM. Moreover, the “T cell response [SFC]” value in test [1] was 82 SFC.
The matching figures for `CC[C@H](C)[C@H](NC(=O)[C@H](CC(C)C)NC(=O)[C@H](CO)NC(=O)[C@H](C)NC(=O)[C@H](CCCCN)NC(=O)[C@H](CCC(=O)O)NC(=O)[C@H](CC(C)C)NC(=O)[C@H](CCCCN)NC(=O)[C@H](Cc1c[nH]c2ccccc12)NC(=O)[C@H](CO)NC(=O)CN)C(=O)N[C@@H](CCC(=O)O)C(=O)N[C@H](C(=O)N[C@@H](CCCCN)C(=O)N[C@H](C(=O)O)[C@@H](C)O)C(C)C` [NS1984-998]: 0.056 µM and 236 SFC.
Take `CC[C@H](C)[C@H](NC(=O)CNC(=O)[C@H](CCC(=O)O)NC(=O)[C@@H]1CCCN1C(=O)[C@@H](N)[C@@H](C)O)C(=O)N[C@H](C(=O)N1CCC[C@H]1C(=O)N[C@@H](CO)C(=O)N[C@@H](CCSC)C(=O)N[C@@H](Cc1ccccc1)C(=O)O)[C@@H](C)CC` [NS31978-1987]: the “Total Response per epitope” value in test [2] (IFNγ ELISPOT response summed over responding donors, per epitope) is 1771.7. In test [2] (number of donors responding to the epitope, HLA-matched PBMC, proteome-wide screen), the “# donors responded” value is recorded as 7. For the same compound, the “T cell response [SFC]” value in test [2] (per epitope, ex vivo IFNγ SFC/10^6 PBMC) came to 1772 SFC. For the same compound, the “# of responders” value in test [2] (responding donors, HLA allele(s)) amounted to 7. In addition, in test [3], the frequency in humans is on record as 20% (1 out of 5).
As to `CSCC[C@H](NC(=O)[C@H](CCCNC(=N)N)NC(=O)[C@@H]1CCCN1C(=O)[C@@H](N)[C@@H](C)O)C(=O)N[C@@H](CS)C(=O)N[C@H](C(=O)N[C@@H](CCCNC(=N)N)C(=O)N[C@@H](CCC(=O)O)C(=O)N[C@@H](CCC(=O)O)C(=O)N[C@@H](Cc1ccccc1)C(=O)O)[C@@H](C)O` [NS52885-2894], in test [3], the frequency in humans is 60% (3 out of 5).
`CC[C@H](C)[C@H](NC(=O)[C@H](C)NC(=O)[C@@H](N)CCCNC(=N)N)C(=O)N[C@@H](Cc1c[nH]c2ccccc12)C(=O)N[C@@H](Cc1ccc(O)cc1)C(=O)N[C@@H](CCSC)C(=O)N[C@@H](Cc1c[nH]c2ccccc12)C(=O)N[C@@H](CC(C)C)C(=O)NCC(=O)N[C@@H](C)C(=O)N[C@@H](CCCNC(=N)N)C(=O)N[C@@H](Cc1ccc(O)cc1)C(=O)N[C@@H](CC(C)C)C(=O)N[C@@H](CCC(=O)O)C(=O)N[C@@H](Cc1ccccc1)C(=O)O` [NS52967-2981] yielded an IC50 on HLA DRB1*0101 of 0.048 µM. Moreover, in test [1], the “T cell response [SFC]” value amounted to 586 SFC.
The compound AEQTGVSHNL [NS2B1412-1421] yielded an IC50 on HLA B*4001 of 0.067 µM.
On HLA B*4001, GEIGAIALDF [NS31598-1607] gave an IC50 of 0.04 µM.
In the case of “NS2A8-15: DENV-2 derived H-2^b restricted dominant CD8+ T cell epitope (FSLGVLGM)”, the “lower serum DENV RNA levels, peptide-immunized vs mock-immunized mice” value in the test with DENV2 (S221) was determined as 350 fold.
